Entries after “also recorded” stand apart in the source; their conditions may differ.
How the values were obtained:
[1] = phase II, suspended June 2013; cited from earlier work
Excerpt: Although these BACE1-null abnormalities are relatively mild, they are complex neurological phenotypes that raise a concern that complete inhibition or entire absence of BACE1 function may not be fre ...

[2] = target: recombinant BACE1 protein (β-site APP cleaving enzyme 1) (UniProt P56817)
[3] = test system: BACE1; settings: cited from earlier work
[4] = test system: recombinant BACE1; experiment: BACE1 activity (FRET) assay, cell-free; assay type: biochemical; settings: for % of Inhibition of BACE1: FRET substrate Rh-EVNLDAEFK-quencher, dark, ex 545/em 585 nm, mean ± SD
Procedure: The BACE1 inhibiting activity of APP-based BACE1 site binding peptides were determined using a fluorescence resonance energy transfer (FRET) assay (Pan Vera Co., Madison, WI), which employs a recombinant baculovirus-expressed BACE1 and a specific substrate (Rh-[…]-quencher) that is based on the APPswe mutation. This specific peptide substrate becomes highly fluorescent upon enzymatic cleavage. […] Then, 10 μL of BACE1 stop buffer (2.5 M sodium acetate) was added to the mixture. Fluorescence was read using a fluorometer, with excitation at 545 nm and emission at 585 nm.

[5] = test system: Akt and MBP; experiment: WB of myelin signaling (Akt, MBP) in brain homogenates, 5XFAD mice; assay type: in vivo, mouse; settings: TAT-APPsweBBP, TAT and PBS groups compared
Procedure: (§1) Transgenic AD mice [5XFAD; B6SJL-Tg(APPSwFlLon,PSEN1*M146L*L286V) 6799Vas/Mmjax] at 2.5 months of age were obtained from the Jackson Laboratory (Bar Harbor, ME) and housed and maintained in the Animal Facility of College of Medicine at University of South Florida (USF). The mice at 3.5 months of age were treated with TAT-APPsweBBP, TAT peptide (100 nmol/kg in 100 μL PBS) or PBS (100 μL) daily by intraperitioneal injection (i.p.) for eight consecutive weeks. The mice were subjected to behavioral testing after 8-week treatment and then euthanized for immunohistochemical, WB and ELISA analyses. Animals were housed and maintained at USF and all experiments were in compliance with protocols approved by USF Institutional Animal Care and Use Committee. All methods were performed in accordance with relevant guidelines and regulations.
WB analysis was performed as previously described. Briefly, the proteins from the various cell-free suspensions, cell lysates and brain homogenates were electrophoretically separated using 10% bicine/tris gel (8 M urea) for proteins less than 5 kD or 10% tricine/tris gels for larger proteins. Electrophoresed proteins were transferred to polyvinylidene difluoride membranes (Bio-Rad, Richmond, CA), washed and blocked for 2 h at room temperature in Tris-buffered saline containing 5% (w/v) nonfat dry milk (TBS/NFDM). […]

[6] = test system: 5XFAD mice; experiment: Rotarod test, 5XFAD mice; assay type: in vivo, mouse; settings: 100 nmol/kg i.p. daily, 8 weeks, n = 10 per treatment
Procedure: as §1
The rotarod task was also performed to exclude the possibility that positive effects of any treatment in RAWM test are due to improvements in sensorimotor ability. Mice were positioned on the rod (diameter 3.6 cm) of the equipment (Rotarod 7650 accelerating model; Ugo Basile, Biological Research Apparatus, Varese, Italy), which was initially set at 1.0 rpm. The rod was then allowed to steadily accelerate up to 40.0 rpm over a 3-min session and evaluation was made by monitoring latency to fall.

[7] = test system: WT mice; experiment: Radial arm water maze (RAWM), WT mice; assay type: in vivo, mouse; settings: 100 nmol/kg i.p. daily, 8 weeks, n = 10 per treatment
[8] = test system: 5XFAD mice; experiment: β-amyloid immunohistochemistry (4G8), 5XFAD mice; assay type: in vivo, mouse; settings: 100 nmol/kg i.p. daily, 8 weeks, RSC, EC and H regions, n = 10, 5 female/5 male
Procedure: as §1
For paraffin brain tissues, we sectioned five coronal sections per region with a 100-μm interval and a thickness of 5-μm for retrosplenial cortex (RSC), entorhinal cortex (EC), and hippocampus (H), located at bregma −2.92 to −3.64 mm. […] Images were acquired as digitized tagged-image format files (to retain maximum resolution) using a BX60 microscope with an attached CCD camera system (DP-70, Olympus, Tokyo, Japan), and digital images were routed into a Windows PC for quantitative analyses using SimplePCI software (Hamamatsu Photonics, Hamamatsu, Shizuoka, Japan). […]

[9] = test system: recombinant BACE1 protein; experiment: Immunoprecipitation/WB of peptide-BACE1 binding, cell-free; settings: 10 μg biotin-labeled peptide with 10 μL recombinant BACE1 (1.0 U/mL), 4 h, 37 °C; anti-BACE1 IP/anti-biotin WB and reverse
Procedure: In order to confirm that APPsweBBP containing the β-cleavage site could bind to and be consequently proteolyzed by BACE1, 10 μg of biotin-labeled TAT-APPsweBBP was incubated with or without 10 μL of recombinant BACE1 protein (1.0 U/mL) in BACE1 reaction buffer for 4 h at 37 °C and then subjected to WB analysis as described previously. In addition, we performed immunoprecipitation (IP) and WB analyses of this mixture with anti-BACE1 and anti-biotin antibodies to confirm that TAT-APPsweBBP, but not TAT, specifically binds to BACE1.

[10] = test system: WT mice; experiment: Rotarod test, WT mice; assay type: in vivo, mouse; settings: 100 nmol/kg i.p. daily, 8 weeks, n = 10 per treatment
[11] = test system: brain of 5XFAD mice; settings: mouse, in vivo
Procedure: 5XFAD mice at 2 months of age (n = 5, female) were treated intraperitoneally with biotin-labeled TAT-APPsweBBP or APPsweBBP (100 nmol/kg) daily for 5 days and then euthanized 4 h after the last injection. Brain tissues were removed, sectioned and stained with anti-BACE1 and anti-biotin antibodies.
Fixed cell cultures and brain sections were stained with indicated antibodies and then treated with donkey anti-mouse IgG conjugated with Alexa Fluor 488 (1:200) or goat anti-rabbit IgG conjugated with Alexa Fluor 594 (1:200; Invitrogen, Carlsbad, CA). The slides were then washed, mounted with DAPI medium (Vector Laboratories, Burlingame, CA) and visualized with an Olympus FV1000 confocal microscope (Tokyo, Japan).

[12] = test system: treated patients; settings: Phase III; cited from earlier work
Excerpt: Presenilin 1 and 2 (PS1/PS2), two integral membrane proteins found in the endoplasmic reticulum and Golgi apparatus, are the major enzymatic targets for γ-secretase inhibition for the treatment of AD[5]. However, apart from their roles in AD, PS1/PS2 also controls the Notch signaling pathway responsible for cell proliferation and differentiation during embryonic development. PS1/PS2-null mice have massive neuronal loss, skeletal defects, underdeveloped subventricular areas and severe hemorrhages, and only a few types of PS1/PS2-null mouse models survive after birth. Other subst ...

[13] = peptide final concentration 20 μM, 90 min, room temperature

Sequence of recombinant BACE1 protein (β-site APP cleaving enzyme 1) (P56817 46-501): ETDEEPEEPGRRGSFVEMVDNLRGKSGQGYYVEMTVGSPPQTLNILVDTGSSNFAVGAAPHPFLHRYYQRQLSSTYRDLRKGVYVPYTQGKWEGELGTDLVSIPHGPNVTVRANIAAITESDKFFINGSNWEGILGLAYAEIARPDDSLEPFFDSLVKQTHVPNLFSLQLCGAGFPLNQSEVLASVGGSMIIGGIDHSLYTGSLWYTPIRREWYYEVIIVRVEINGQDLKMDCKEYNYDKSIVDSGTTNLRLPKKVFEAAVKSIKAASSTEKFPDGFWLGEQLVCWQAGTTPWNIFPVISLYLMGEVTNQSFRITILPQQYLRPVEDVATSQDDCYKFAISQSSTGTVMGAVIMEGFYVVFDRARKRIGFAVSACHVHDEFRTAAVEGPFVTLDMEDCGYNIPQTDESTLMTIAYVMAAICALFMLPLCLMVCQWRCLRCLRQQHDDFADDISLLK

NC1=N[C@@]2(c3cc(NC(=O)c4ccc(F)cn4)ccc3F)COC[C@H]2CS1 [LY2886721]
liver toxicity [1]: possible liver toxicity

APPwt BACE1 binding site peptide (APPwtBBP)
percent inhibition of BACE1 activity in a cell-free FRET assay (substrate Rh-…-quencher), peptide at 20 μM [2]: 16.2%

biotin-labeled TAT-APPsweBBP (human Swedish mutant APP BACE1 binding site peptide conjugated to the HIV-1 TAT protein-transduction domain) (from UniProt P05067 665-676)
percent inhibition of BACE1 activity in a cell-free FRET assay (substrate Rh-…-quencher), peptide at 0.05, 0.5, 5 and 20 μM [2]: > 90%

EVNLA*AEF [OM99-2]
BBB crossing [3]: too large to cross the BBB | potency [3]: high level of potency | stability [3]: not stable enough for use in therapeutic trials

EISEVKMDAEFR
% of Inhibition of BACE1 [4, 13]: 16.23 ± 0.29%

YGRKKRRQRRREISEVKMDAEFR [APPwtBBP fused with TAT]
% of Inhibition of BACE1 [4, 13]: 21.01 ± 1.42%

APPswe BACE1 binding site peptide (APPsweBBP) (from UniProt P05067 665-676)
percent inhibition of BACE1 activity in a cell-free FRET assay (substrate Rh-…-quencher), peptide at 20 μM [2]: 38.4%

TAT-APPwtBBP (APPwt BACE1 binding site peptide fused with TAT)
percent inhibition of BACE1 activity in a cell-free FRET assay (substrate Rh-…-quencher), peptide at 20 μM [2]: 21%

YGRKKRRQRRR [TAT (YGRKKRRQRRR), reference compound]
Akt (total/phosphorylated) in brain homogenates [5]: differ between TAT-APPsweBBP-, TAT- and PBS-treated 5XFAD mice | myelin basic protein (MBP) expression in brain homogenates [5]: differ between TAT-APPsweBBP-, TAT- and PBS-treated 5XFAD mice | rotarod latency to fall / motor performance [6]: no differences between treatment groups on each day | RAWM entry-arm errors [7]: no difference among the various treatment groups | β-amyloid plaques / 4G8 immunoreactive area [8]: no significant difference between TAT peptide and PBS groups | binding to BACE1 (co-immunoprecipitation) [9]: but not TAT peptide, binds to BACE1 | % of Inhibition of BACE1 [4, 13]: 3.32 ± 0.02% | rotarod latency to fall [10]: no differences between treatment groups on each day

EISEVNLDAEFR [12-AA-residue fragment derived from human APPswe, containing APPswe β-cleavage sites (Glu665–Arg676 of APPswe770 isoform)]
BBB penetration (Fig. S4 legend) [11]: stopped at the capillary lumen | biotin distribution, 5XFAD versus WT control mice ([11]; ip): No noticeable differences in biotin distribution | BACE1 inhibition (result in words) ([4]; FRET assay, APPsweBBP or TAT-APPsweBBP at 0.05, 0.5, 5 and 20 μM (Fig. 1)): strongly inhibits BACE1 activity; also recorded: competitively inhibits the cleavage of commercial BACE1 substrate; also recorded: most effective BACE1 inhibitor; also recorded: much greater | percentage inhibition of BACE1 ([4]; FRET assay, peptide final concentration 20 μM, 90 min, room temperature): ~ 40% | % of Inhibition of BACE1 [4, 13]: 38.43 ± 1.01%

EVNLDAEFR
% of Inhibition of BACE1 [4, 13]: 14.32 ± 0.04%

EVKMDAEFR
% of Inhibition of BACE1 [4, 13]: 4.89 ± 0.06%

CC(C)[C@H](O)C(=O)N[C@@H](C)C(=O)N[C@@H]1C(=O)N(C)CCc2ccccc21 [semagacestat]
activities of daily living and cognition [12]: activities of daily living and cognition even worsened in the treated patients

— publication PMC4473678, “Swedish mutant APP-based BACE1 binding site peptide reduces APP β-cleavage and cerebral Aβ levels in Alzheimer’s mice” (Scientific Reports, 2015)
